# Test results taken from patent publication US6387278B1, “Increasing subterranean mobilization of organic contaminants and petroleum by aqueous thermal oxidation” (The Regents of the University of California, priority 2000, dated 2002).
# What was measured:
# [1] = solubility of TCE in water as a function of temperature (Dickson-type autoclave); type: physicochemical; conditions: at 298 K; calculated from solubility measured from 298 to 398 K at constant pressure
# Source text: (§1) The static autoclave experiments are run in Dickson-type, gold-bag rocking autoclaves. The autoclave reaction vessel uses a flexible gold bag sealed with a passivated titanium head and is contained within a large steel pressure vessel. The autoclave design allows periodic sampling of the reaction cell under in situ conditions throughout the course of an experiment without disturbing the temperature and pressure of the run. During the experiment the solution contacts only gold and passivated titanium so that unwanted surface catalytic effects are eliminated. Various combinations of solid, liquid or gaseous catalysts or oxidants are introduced into the reactor in order to study their effects on reaction mechanisms and rates. The sampled fluids and gases are analyzed using a variety of analytical techniques including ICP-ES, IC, GC (using purge and trap), gas MS, GC/MS, and HPLC.
# A Dickson-type autoclave, as described above, equipped with a precision high pressure liquid chromatography pump to control pressure was used to measure the solubility of TCE in water as a function of temperature from 298 to 398 K at constant pressure. Obtained results were used to calculate the partial molal thermodynamic quantities for the dissolution reaction of TCE in water at 298 K: ΔGsoln=11.1 (±0.71) KJ/mol, ΔHsoln=3.075 (±0.525) KJ/mol and ΔSsoln=−28.29 (±1.61) J/mol-K.
# [2] = hydrous pyrolysis/oxidation of TCE dissolved in water with dissolved oxygen; type: physicochemical; conditions: temperatures above 90° C.
# Source text: as §1
# All experiments are conducted in non-reactive flexible gold bag hydrothermal systems, so that complications due to experimental artifacts from catalysis by the equipment itself are avoided, and both temperature and pressure can be precisely controlled. Many samples can be taken and tested as the reaction proceeds without affecting the conditions of the reaction itself. […]
structure (smiles),measurement,setting,value
"ClC=C(Cl)Cl [TCE, trichloroethylene]","ΔGsoln, partial molal quantity for the dissolution reaction in water",[1],11.1 (±0.71) KJ/mol
same,"ΔHsoln, partial molal quantity for the dissolution reaction in water",[1],3.075 (±0.525) KJ/mol
same,"ΔSsoln, partial molal quantity for the dissolution reaction in water",[1],−28.29 (±1.61) J/mol-K
same,decrease of concentration by hydrous pyrolysis/oxidation,[2]; initial runs with high starting concentrations (up to ≧600 ppm),"≤ 10,000 fold"
same,concentration eventually reached (drinking water MCL),[2]; initial runs with high starting concentrations,5 ppb
